Source: US11613686B2, “Associative copolymers with hydrophobic quaternized (meth)acrylamide and (meth)acrylic acid derivatives” (BASF SE, priority 2018, dated 2023)

Test: Solubility tests of monomer 1 in the monomer solution with auxiliary surfactants (additives)
Assay type: physicochemical
Method: In order to solubilize monomer 1 the monomer was first dissolved in ethanol and then added to the monomer solution. This approach is used for AIBN, which has a low solubility in the monomer solution, too. […] Therefore, the use of auxiliary surfactants (additives) was tested.
These tests were done in first instance with 0.1 mol % of 1-4.

## C=C(C)C(=O)NCCC[N+](C)(C)CCCCCCCCCCCC [Monomer 1]
Additive 1 Aromox C/12 2-20 eq, additive 2 Disponil A 1080 0-5 eq, same recipe
  Result (solubility of monomer 1): Not soluble***
Additive 1 Aromox MCD 2-20 eq, additive 2 Disponil A 1080 0-5 eq, same recipe
  Result (solubility of monomer 1): Not soluble***
Additive 1 C14TAB 2-20 eq, additive 2 Disponil A 1080 0-5 eq, same recipe
  Result (solubility of monomer 1): Not soluble***
Additive 1 Dehyquart E-CA 2-20 eq, additive 2 Disponil A 1080 0-5 eq, same recipe
  Result (solubility of monomer 1): Not soluble***
Additive 1 Deriphat 160 C 2-20 eq, additive 2 Disponil A 1080 0-5 eq, same recipe
  Result (solubility of monomer 1): Not soluble***
Additive 1 Disponil A 1080 2-20 eq, no additive 2, same recipe
  Result (solubility of monomer 1): Partly dissolved
Additive 1 Glucopon 225DK 2-20 eq, additive 2 Disponil A 1080 0-5 eq, same recipe
  Result (solubility of monomer 1): Not soluble***
Additive 1 Lutensol AO 11 2-20 eq, additive 2 Disponil A 1080 0-5 eq, same recipe
  Result (solubility of monomer 1): Not soluble***
Additive 1 Lutensol AT 18 2-20 eq, additive 2 Disponil A 1080 0-5 eq, same recipe
  Result (solubility of monomer 1): Not soluble***
Additive 1 Lutensol TO 129 2-20 eq, additive 2 Disponil A 1080 0-5 eq, same recipe
  Result (solubility of monomer 1): Not soluble***
Additive 1 Lutensol XP 100 2-20 eq, additive 2 Disponil A 1080 0-5 eq, same recipe
  Result (solubility of monomer 1): Not soluble***
Additive 1 SDS 2-20 eq, additive 2 Disponil A 1080 0-5 eq, same recipe
  Result (solubility of monomer 1): Not soluble***
Additive 1 Texapon NSO 2-20 eq, additive 2 Disponil A 1080 0-5 eq, same recipe
  Result (solubility of monomer 1): Not soluble***
No additive, recipe 27 mol % sodium acrylate, 72.9 mol % acrylamide, 0.1 mol % 1
  Result (solubility of monomer 1): Not soluble***
